Experimental data as given in a compilation of properties of binary mixtures (doi:10.1021/jp3012602).

Assay: xn = mol fraction of the nth substance listed
Conditions: 101 kPa

CCC[N+]1(C)CCCC1.O=S(=O)([N-]S(=O)(=O)C(F)(F)F)C(F)(F)F + CCCCCCCCCCCCCC[P+](CCCCCC)(CCCCCC)CCCCCC.O=S(=O)([N-]S(=O)(=O)C(F)(F)F)C(F)(F)F
Conditions | electrical conductivity, 293.15 K [S/m] | electrical conductivity, 313.15 K [S/m] | electrical conductivity, 333.15 K [S/m] | electrical conductivity, 353.15 K [S/m] | viscosity, 293.15 K [mPa·s] | viscosity, 313.15 K [mPa·s] | viscosity, 333.15 K [mPa·s] | viscosity, 353.15 K [mPa·s]
x2 = 0 | 0.32 | 0.678 | 1.18 | 1.76 | – | 34.5 | 18.8 | 11.6
x2 = 0.5 | 0.0216 | 0.0565 | 0.12 | 0.223 | 322 | 117 | 51.8 | 26.7
x2 = 0.75 | 0.0113 | – | 0.0688 | 0.146 | 368 | – | 61.9 | 29.2

CCC[N+]1(C)CCCC1.O=S(=O)([N-]S(=O)(=O)C(F)(F)F)C(F)(F)F + CCCCCC[N+]1(C)CCCC1.O=S(=O)([N-]S(=O)(=O)C(F)(F)F)C(F)(F)F
x2 = 0
Conditions | electrical conductivity [S/m] | viscosity [mPa·s]
293.15 K | 0.32 | –
313.15 K | 0.678 | 34.4
333.15 K | 1.18 | 18.8

CCC[N+]1(C)CCCC1.O=S(=O)([N-]S(=O)(=O)C(F)(F)F)C(F)(F)F + CCCC[N+]1(C)CCCC1.O=S(=O)([N-]S(=O)(=O)C(F)(F)F)C(F)(F)F
Conditions | electrical conductivity, 293.15 K [S/m] | electrical conductivity, 313.15 K [S/m] | electrical conductivity, 333.15 K [S/m] | electrical conductivity, 353.15 K [S/m] | viscosity, 293.15 K [mPa·s] | viscosity, 313.15 K [mPa·s] | viscosity, 333.15 K [mPa·s] | viscosity, 353.15 K [mPa·s]
x2 = 0 | 0.32 | 0.678 | – | 1.76 | – | 34.4 | – | 11.6
x2 = 0.25 | – | 0.509 | 0.893 | 1.39 | – | 35.9 | 19.2 | 11.8
x2 = 0.5 | 0.298 | 0.61 | 1.03 | – | 87 | 37.9 | 20 | –
x2 = 0.75 | 0.261 | 0.569 | – | 1.57 | 92 | 39.5 | – | 12.5

CCC[N+]1(C)CCCC1.O=S(=O)([N-]S(=O)(=O)C(F)(F)F)C(F)(F)F + CCC[N+]1(C)CCCC1.N#C[N-]C#N
x2 = 0
Conditions | electrical conductivity [S/m] | viscosity [mPa·s]
293.15 K | 0.32 | –
333.15 K | 1.18 | 18.8

CCCCCCCCCCCCCC[P+](CCCCCC)(CCCCCC)CCCCCC.O=S(=O)([N-]S(=O)(=O)C(F)(F)F)C(F)(F)F + CCC[N+]1(C)CCCC1.O=S(=O)([N-]S(=O)(=O)C(F)(F)F)C(F)(F)F
x1 = 1
Conditions | electrical conductivity [S/m] | viscosity [mPa·s]
293.15 K | 0.0072 | –
313.15 K | 0.0216 | 150
333.15 K | 0.0473 | 63
353.15 K | 0.0913 | 31.1

CCCCCC[N+]1(C)CCCC1.O=S(=O)([N-]S(=O)(=O)C(F)(F)F)C(F)(F)F + CCC[N+]1(C)CCCC1.O=S(=O)([N-]S(=O)(=O)C(F)(F)F)C(F)(F)F
Conditions | electrical conductivity, 293.15 K [S/m] | electrical conductivity, 313.15 K [S/m] | electrical conductivity, 333.15 K [S/m] | electrical conductivity, 353.15 K [S/m] | viscosity, 293.15 K [mPa·s] | viscosity, 313.15 K [mPa·s] | viscosity, 333.15 K [mPa·s] | viscosity, 353.15 K [mPa·s]
x1 = 0.25 | 0.268 | – | 1.02 | 1.54 | 89 | – | 20.6 | 12.6
x1 = 0.5 | 0.185 | 0.417 | 0.766 | – | 102 | 42.9 | 22.2 | –
x1 = 0.75 | 0.111 | 0.251 | 0.463 | 0.724 | 116 | 47.3 | 23.8 | 13.9
x1 = 1 | 0.118 | 0.272 | 0.525 | 0.86 | – | 52.7 | 25.9 | 14.9
